According to patent publication US20230372272A1, “USE OF CYSTINE AND DERIVATIVES THEREOF AS ANTI-THROMBOTIC AND THROMBOLYTIC AGENTS” (Georgia Tech Research Corporation, priority 2020, published 2023):

Key:
[1] = tested on: fibrin clots from recalcified citrated whole blood; assay: Red clot lysis under stagnant conditions, whole blood clots; format: cell-based, Porcine; details: whole blood clot, 48 h; DiNAC and NAC at 2 mM
Source text: (§1) Blood Collection: Porcine blood was collected at a local abattoir immediately following slaughter into 3.5 U/mL heparin (Thermo Fisher Scientific, Waltham, MA) or 3.2% sodium citrate (Sigma-Aldrich, St. Louis, MO). Whole blood was gently agitated using an Orbit LS shaker (Laboratory Supply Network, Atkinson, NH) until perfusion and used in experiments as soon as possible the same day as collection.
(§2) Red clot formation and lysis: Platelet rich plasma (PRP) was made by separating citrated whole blood via gravity over a 2 h period and collecting the supernatant. Separation via gravity was employed instead of centrifugation to avoid platelet damage and activation. Citrated whole blood or PRP was then recalcified with CaCl2 to a final [Ca^2+] of 10 mM (Griffin, M. T., Kim, D. & Ku, D. N. Shear-induced platelet aggregation: 3D-grayscale microfluidics for repeatable and localized occlusive thrombosis. Biomicrofluidics 13, 2019), and 200 μl was transferred into 500 μal centrifuge tubes and allowed to clot and retract for 30 min. The clot was then incubated with 100 μl of either agent or control solution. The treatment solution was exchanged by removing the top 100 μl and replacement with fresh solution at 3, 6, 12, 24, and 48 h of incubation. The weight of the tube was measured immediately post-clot formation and at each timepoint after removal of old solution and prior to the replacement with fresh solution.

pH of DiNAC solution = format: physicochemical
Experimental: (§3) Pharmacologic Agents: Recombinant human tPA (Sigma-Aldrich, St. Louis, MO), recombinant human ADAMTS-13 (MyBiosource, San Diego, CA), abciximab (ReoPro was kindly provided by Dr. Kevin Maher at Emory/CHOA), NAC (Thermo Fisher Scientific, Waltham, MA), and DiNAC (Cayman Chemical, Ann Arbor, Ml) or control (PBS) treatments were perfused for an hour at a flow rate of 1 ml/min. Agent solutions were made by dissolution or dilution in PBS. The in vitro flow system setup and image acquisition are shown in FIG. 2, and the concentrations of each agent are detailed in Table 2.
To confirm the efficacy of DiNAC, the dose response was tested at increasing concentrations of 0.02, 0.2, 2, and 20 mM. The thrombus area reduction was dependent on the concentration of DiNAC (FIG. 4). […] Considering the practical use of the DiNAC as a thrombolytic in a clinical setting, the 20 mM DiNAC with sodium bicarbonate to a final pH=7. Neutralization of 20 mM DiNAC reduced the variance from 47% to 12% in surface area reduction (44±47% vs 59±12%, p=0.77, FIG. 4).

white clots = assay: Example 3: thrombolytic activity on white clots, procedures of Examples 1 and 2; format: cell-based, Porcine; details: DiNAC: clot breakup over 10 minutes; comparators at 1 hour
Experimental: In this example, use of DiNAC and other agents as anti-thrombotic agents was tested. A white clot formation in the artery system was modeled by a collagen coated glass capillary tube (Ku DN, Flannery CJ. Development of a flow-through system to create occluding thrombus, Biorheology, 2007; 44(4)273-84). Porcine blood was perfused into the capillary tube using a constant pressure head or a constant flow rate (Para AN, Ku DN. A low-volume, single pass in vitro system of high shear thrombosis in a stenosis, Thrombosis Research, 2013, 131(5):418-24). After clot formation, a thrombolytic agent was perfused into the capillary tube. The detailed capillary tube experimental protocol is summarized below.
In this example, the thrombolytic activity of DiNAC and other lytic agents was tested, using the procedures described in Examples 1 and 2.

[2] = tested on: fibrin clots from recalcified platelet rich plasma (PRP); assay: Red clot lysis under stagnant conditions, PRP clots; format: cell-based, Porcine; details: 48 h, DiNAC and NAC at 2 mM
Source text: as §1, §2

[3] = tested on: VWF- and platelet-rich white thrombi; assay: Lysis of platelet-rich white thrombi in collagen-coated stenotic capillary tube under arterial shear (perfusion of lytic agents); format: cell-based, Porcine
Experimental: Collagen Coating: The stenotic glass test sections (inner diameter=1.5 mm) described herein were made by the Chemistry and Biochemistry Glass Shop at Georgia Institute of Technology. The % stenosis by diameter reduction ranged from 60% to 80%. Fibrillar equine collagen (type I; Chrono-Log Corporation, Havertown, PA) was diluted 9:1 in NaCl (Sigma-Aldrich, St. Louis, MO) and incubated in the test section at the stenosis for 24 h in a warm, moist environment (Para, A., Bark, D., Lin, A. & Ku, D. Rapid platelet accumulation leading to thrombotic occlusion. Ann Biomed Eng 39, 1961-1971, 2011; Para, A. N. & Ku, D. N. A low-volume, single pass in-vitro system of high shear thrombosis in a stenosis. Thromb Res 131, 418-424, 2013).
as §1
Syringe Perfusion: Lightly heparinized whole blood was perfused through the stenotic test section using a syringe pump. The flow rate was set so that the initial wall shear rate in the stenosis was 3,500 s^−1. A pressure transducer was connected in-line upstream of the stenosis (FIG. 2A). A dissecting microscope with a camera (PCO-Tech Incorporated, Romulus, MI) was used to capture images in real-time during perfusion. Blood perfusion continued until the upstream pressure increased by 30 mmHg (equivalent to an arterial pressure head in vivo) as a result of platelet thrombus formation in the stenotic section. Perfusion with a syringe pump (constant flow rate over constant pressure head) ensured that the thrombi were never fully occlusive, allowing subsequent perfusion for the induction of lysis.
as §3
Real-time image capture (5 frames per second) of the stenosis continued throughout treatment perfusion.
Data Analysis: The thrombi surface area (which was colored green) was calculated using manual pixel counting in the open-source GNU Image Manipulation Program (GIMP, Version 2.10.8, 1995-2018). Surface area reduction was calculated by % pixel reduction versus the occlusion image. Analysis of variance (ANOVA) was used to test for statistical differences between groups, with the significance set at p<0.05.
In this example, a stenotic capillary tube model, which potentiates VWF- and platelet-rich white thrombi in an arterial setting on a collagen-coated stenosis was used (Para, A., Bark, D., Lin, A. & Ku, D. Rapid platelet accumulation leading to thrombotic occlusion. Ann Biomed Eng 39, 1961-1971, 2011; Ku, D. N. & Flannery, C. J. Development of a flow-through system to create occluding thrombus. Biorheology 44, 273-284, 2007; Para, A. N. & Ku, D. N. A low-volume, single pass in-vitro system of high shear thrombosis in a stenosis. Thromb Res 131, 418-424, 2013) to test lysis of 90% occlusive white thrombi (FIG. 2) and perfused low (2 mM) and high (20 mM) concentrations of NAC and DiNAC solutions. As illustrated in FIG. 2. DiNAC, but not NAC, achieved thrombolysis over 60 minutes of perfusion (FIG. 3A-3D). 2 mM and 20 mM DiNAC lysed most of the thrombi (>95%) within 14 min and 1.5 min, respectively (FIG. 3A-3B).

[4] = tested on: platelet-rich thrombi from heparinized human whole blood; assay: Example 4: thrombolysis of human blood thrombi in 3 mm collagen-coated stenotic capillary tubes; format: cell-based; details: human whole blood thrombus
Experimental: In this example, an in-vitro randomized trial was performed using heparinized human blood in collagen-coated glass capillary tubes with a designed stenosis, mimicking arterial disease. Heparinized human blood was then infused through 3 mm capillary tubes at a constant flow rate, during which near-occlusive thrombi were formed at the region of stenosis (FIG. 11). DiNAC was then infused at a constant flow rate through the capillary tubes in order to observe thrombolytic activity, using a combination of live pressure monitoring and microscopic image capture. All infusions were control-matched with a phosphate-buffered saline solution in lieu of DiNAC.

FeCl-induced thrombi = details: NAC treatment alone, in vivo mice model; cited from earlier work
[5] = tested on: FeCl3 injury-induced thrombus; set-up: dose or concentration left out as unconfirmed; details: after a 60 min treatment; FeCl3 injury in vivo; ADAMTS-13; cited from earlier work

CC(=O)N[C@@H](CSSC[C@H](NC(C)=O)C(=O)O)C(=O)O [DiNAC, N,N′-diacetyl-cystine]
whole blood clot lysis over 48 h [1]: no effect on red clots | pH of solution (pH of DiNAC solution; 2 mM solution): 7 | pH of solution (pH of DiNAC solution; 20 mM solution): 2 | thrombolytic activity on white clots (white clots): highly effective at causing lysis of white clots | PRP clot lysis over 48 h [2]: no effect on red clots | thrombus area vs control ([3]; 0.02 mM, 60 min perfusion): not significantly different from the control | thrombus area reduction ([3]; 0.2 mM, 60 min perfusion): 46±15% | thrombus surface area reduction ([3]; 20 mM acidic solution (not neutralized), 60 min perfusion): 44±47% | thrombus surface area reduction ([3]; 20 mM neutralized with sodium bicarbonate to pH=7, 60 min perfusion): 59±12% | time to complete lysis of the white clot ([4]; 20 mM perfusion): ≤ 10 min

CC(=O)N[C@@H](CS)C(=O)O [NAC, N-acetylcysteine, reference compound]
whole blood clot lysis over 48 h [1]: no effect on red clots | thrombolytic activity on white clots (white clots): minimal effects with no perfusion at 1 hour | PRP clot lysis over 48 h [2]: no effect on red clots | reperfusion (FeCl-induced thrombi): < 40% | lysis on perfusion ([3]; 2 mM and 20 mM, 60 min perfusion): minimal lysis | thrombus surface area reduction ([3]; 2 mM, 60 min perfusion): < 20% | lysis after 60 min perfusion ([3]; 20 mM, 60 min): minimal lysis

B1: Abciximab: inhibits platelet thrombus formation by blocking the glycoprotein IIb/IIIa through an antibody (antibody, chains of the INN, looked up, V domains shown)
VH: EVQLQQSGTVLARPGASVKMSCEASGYTFTNYWMHWVKQRPGQGLEWIGAIYPGNSDTSYIQKFKGKAKLTAVTSTTSVYMELSSLTNEDSAVYYCTLYDGYYVFAYWGQGTLVTVSA
VL: EIVLTQSPVTLSVTPGDSVSLSCRASRDISNNLHWFQQTSHESPRLLIKYASQSMSGIPSRFSGSGSGTDFTLSINSVETEDFGMYFCQQTNSWPYTFGGGTKLEIK
modifications: Fab
thrombolytic activity on white clots (white clots): minimal effects with no perfusion at 1 hour | reduction in thrombus area ([3]; […] (Table 2), 60 min perfusion): 22±11%

B2: ADAMTS-13: recombinant human ADAMTS-13, a protease that cleaves VWF (protein, UniProt Q76LX8 75-1427, looked up)
A disintegrin and …: AAGGILHLELLVAVGPDVFQAHQEDTERYVLTNLNIGAELLRDPSLGAQFRVHLVKMVILTEPEGAPNITANLTSSLLSVCGWSQTINPEDDTDPGHADLVLYITRFDLELPDGNRQVRGVTQLGGACSPTWSCLITEDTGFDLGVTIAHEIGHSFGLEHDGAPGSGCGPSGHVMASDGAAPRAGLAWSPCSRRQLLSLLSAGRARCVWDPPRPQPGSAGHPPDAQPGLYYSANEQCRVAFGPKAVACTFAREHLDMCQALSCHTDPLDQSSCSRLLVPLLDGTECGVEKWCSKGRCRSLVELTPIAAVHGRWSSWGPRSPCSRSCGGGVVTRRRQCNNPRPAFGGRACVGADLQAEMCNTQACEKTQLEFMSQQCARTDGQPLRSSPGGASFYHWGAAVPHSQGDALCRHMCRAIGESFIMKRGDSFLDGTRCMPSGPREDGTLSLCVSGSCRTFGCDGRMDSQQVWDRCQVCGGDNSTCSPRKGSFTAGRAREYVTFLTVTPNLTSVYIANHRPLFTHLAVRIGGRYVVAGKMSISPNTTYPSLLEDGRVEYRVALTEDRLPRLEEIRIWGPLQEDADIQVYRRYGEEYGNLTRPDITFTYFQPKPRQAWVWAAVRGPCSVSCGAGLRWVNYSCLDQARKELVETVQCQGSQQPPAWPEACVLEPCPPYWAVGDFGPCSASCGGGLRERPVRCVEAQGSLLKTLPPARCRAGAQQPAVALETCNPQPCPARWEVSEPSSCTSAGGAGLALENETCVPGADGLEAPVTEGPGSVDEKLPAPEPCVGMSCPPGWGHLDATSAGEKAPSPWGSIRTGAQAAHVWTPAAGSCSVSCGRGLMELRFLCMDSALRVPVQEELCGLASKPGSRREVCQAVPCPARWQYKLAACSVSCGRGVVRRILYCARAHGEDDGEEILLDTQCQGLPRPEPQEACSLEPCPPRWKVMSLGPCSASCGLGTARRSVACVQLDQGQDVEVDEAACAALVRPEASVPCLIADCTYRWHVGTWMECSVSCGDGIQRRRDTCLGPQAQAPVPADFCQHLPKPVTVRGCWAGPCVGQGTPSLVPHEEAAAPGRTTATPAGASLEWSQARGLLFSPAPQPRRLLPGPQENSVQSSACGRQHLEPTGTIDMRGPGQADCAVAIGRPLGEVVTLRVLESSLNCSAGDMLLLWGRLTWRKMCRKLLDMTFSSKTNTLVVRQRCGRPGGGVLLRYGSQLAPETFYRECDMQLFGPWGEIVSPSLSPATSNAGGCRLFINVAPHARIAIHALATNMGAGTEGANASYILIRDTHSLRTTAFHGQQVLYWESESSQAEMEFSEGFLKAQASLRGQYWTLQSWVPEMQDPQSWKGKEGT
whole blood clot lysis over 48 h [1]: no effect on red clots | reduction of thrombus size [5]: 62.3% | thrombolytic activity on white clots (white clots): minimal effects with no perfusion at 1 hour | PRP clot lysis over 48 h [2]: no effect on red clots | thrombus area reduction ([3]; 1 g/mL (Table 2), 60 min perfusion): 19±8% | effect on clots and flow ([4]; perfusion): did not alter the clots or restore flow
